The target in data set [1] is Epidermal growth factor receptor (Homo sapiens, UniProt P00533). Put plainly: Inhibition of EGFR-mediated poly(L-glutamic acid L-tyrosine) phosphorylation.
A further data set deals with MDA-MB-468. The data set can be described thus: Induction of DNA damage in human MDA-MB-468 cells assessed as tail movements by comet assay. The class given is functional, cell-based.
The test system of another data set is NIH3T3. The data set can be described thus: Growth inhibition of mouse NIH/3T3 cells expressing erB2 gene. The class given is functional, cell-based.
The nature of data set [2]: Stability assessed as degradation to FD105 at 37 degC by fluorescence. It counts as physicochemical.

The source made the active and inactive calls. The rule behind the calls is not given here.

Epidermal growth factor receptor, sequence (P00533 whole entry): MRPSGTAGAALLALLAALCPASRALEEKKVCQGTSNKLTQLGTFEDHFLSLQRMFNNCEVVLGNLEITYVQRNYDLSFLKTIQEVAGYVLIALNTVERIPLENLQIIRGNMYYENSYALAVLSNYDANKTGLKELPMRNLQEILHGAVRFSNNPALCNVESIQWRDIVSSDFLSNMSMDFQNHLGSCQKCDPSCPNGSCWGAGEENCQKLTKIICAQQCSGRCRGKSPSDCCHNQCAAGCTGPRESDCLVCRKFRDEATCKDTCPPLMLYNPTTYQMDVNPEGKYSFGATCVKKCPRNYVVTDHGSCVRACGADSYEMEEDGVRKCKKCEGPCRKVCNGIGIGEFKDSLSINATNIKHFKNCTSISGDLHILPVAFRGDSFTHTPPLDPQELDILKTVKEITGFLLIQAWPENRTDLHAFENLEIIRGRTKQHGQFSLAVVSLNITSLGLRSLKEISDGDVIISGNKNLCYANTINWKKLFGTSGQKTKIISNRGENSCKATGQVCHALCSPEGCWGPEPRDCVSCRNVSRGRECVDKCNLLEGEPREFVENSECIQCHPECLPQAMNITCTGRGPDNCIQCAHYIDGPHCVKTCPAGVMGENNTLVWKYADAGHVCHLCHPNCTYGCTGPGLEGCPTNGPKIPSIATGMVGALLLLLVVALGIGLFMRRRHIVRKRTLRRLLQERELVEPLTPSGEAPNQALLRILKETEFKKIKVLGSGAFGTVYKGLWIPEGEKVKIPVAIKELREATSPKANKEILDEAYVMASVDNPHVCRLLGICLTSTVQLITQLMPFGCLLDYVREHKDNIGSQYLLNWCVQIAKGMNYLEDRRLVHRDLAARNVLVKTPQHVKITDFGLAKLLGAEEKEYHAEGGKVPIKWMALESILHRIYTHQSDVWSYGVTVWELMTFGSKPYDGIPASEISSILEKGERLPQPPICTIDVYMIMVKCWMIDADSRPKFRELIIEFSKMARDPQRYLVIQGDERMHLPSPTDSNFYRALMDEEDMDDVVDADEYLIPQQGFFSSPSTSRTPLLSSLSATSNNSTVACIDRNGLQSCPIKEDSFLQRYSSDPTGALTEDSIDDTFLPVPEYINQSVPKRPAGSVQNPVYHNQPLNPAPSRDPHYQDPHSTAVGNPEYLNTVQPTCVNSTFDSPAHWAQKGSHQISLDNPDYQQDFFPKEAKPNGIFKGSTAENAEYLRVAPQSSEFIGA

Take `C=COC(=O)N(C)/N=N/c1ccc2ncnc(Nc3cccc(Cl)c3)c2c1`: the IC50 (commonly the concentration that gives 50% inhibition) in data set [1] is 720 nM; with NIH3T3, 2370 nM. In addition, the result with MDA-MB-468 was inactive. In data set [2], the Stability result was “Stable”.

As for `CC(=O)OCOC(=O)N(C)/N=N/c1ccc2ncnc(Nc3cccc(Cl)c3)c2c1`, the IC50 in data set [1] stood at 630 nM; with NIH3T3, 1500 nM. Besides, the Activity entry in the data set on MDA-MB-468 was “Dose-dependent effect”. Besides, the Stability result in data set [2] is “Stable”.

Regarding `CC(=O)OCN(C)/N=N/c1ccc2ncnc(Nc3cccc(Cl)c3)c2c1`, the IC50 in data set [1] was determined as 240 nM. For the same molecule, the Stability entry in data set [2] is given as “Unstable”.

As for `CN(/N=N/c1ccc2ncnc(Nc3cccc(Cl)c3)c2c1)C(=O)OCCl`, the values for the IC50 (in data set [1]; in the data set on NIH3T3) were 390 nM and 4940 nM, respectively. Moreover, the Activity result with MDA-MB-468 was “Dose-dependent effect”.

Consider `C=COC(=O)N(CCN(C)C)/N=N/c1ccc2ncnc(Nc3cccc(Cl)c3)c2c1`, for which the IC50 in data set [1] was found to be 180 nM; in the data set with NIH3T3, 2280 nM. Also, the Activity entry in the data set on MDA-MB-468 is “Dose-dependent effect”.

Regarding `CN(/N=N/c1ccc2ncnc(Nc3cccc(Cl)c3)c2c1)C(=O)Oc1ccc([N+](=O)[O-])cc1`, the IC50 was 770 nM in data set [1] and 3790 nM in the data set with NIH3T3. Also, the Activity entry in the data set on MDA-MB-468 was “Dose-dependent effect”. For the same molecule, the Stability result in data set [2] is on record as “Stable”.

The values above are taken from ChEMBL document CHEMBL1155367, “Design and synthesis of new stabilized combi-triazenes for targeting solid tumors expressing the epidermal growth factor receptor (EGFR) or its closest homologue HER2” (Bioorg Med Chem Lett, 2009).
